# Measured values published in patent US6124477A, “Anti-first-pass effect compounds” (priority 1997, dated 2000).
# Like-named read-outs stand apart in the source and are kept apart here.
# What was measured:
# Human Cytochrome P450 [1] = assay: Determination of first-pass effectiveness of furocoumarins (human cytochrome P450-mediated biotransformation, Protocol C / C'); assay type: in vitro ADME
# Protocol: The process of preparing incubation mixtures begins by mixing 10 uL of ethanol or an ethanolic solution containing an inhibitor with 100 uL of 100 mg/mL bovine serum albumin (Sigma) dissolved in reaction buffer at room temperature. Reaction buffer is composed of 0.10 M sodium phosphate, 1.0 mM ethylenediaminetetraacetic acid, and 5.0 mM magnesium chloride, pH 7.4 (all reagents: Fisher Scientific). Inhibitory chemicals used were ketoconazole (Research Diagnostics, Inc.), miconazole, bergapten, xanthotoxin (previous three from Sigma), bergamotin, imperatorin, isopimpinellin, psoralen, angelicin (previous five from Indofine Chemical Company, Inc.), and fractions or precipitates resulting from Protocols A, A', B, B', or B" above. When possible, final inhibitor concentrations were expressed in molarity by calculation from the weighed material or by interpolation from HPLC calibration curves prepared with reference materials; otherwise, concentrations are expressed as weight per volume. Reaction tubes are placed on ice in preparation for the manipulations that follow. Sufficient reaction buffer is added so that the final volume of each tube will be 500 uL, 5 uL of a 100-fold concentrate for generating reduced nicotinamide adenine dinucleotide phosphate is added (such that completed reaction mixture contains 1.0 mM nicotinamide adenine dinucleotide phosphate, 1 U/mL glucose-6-phosphate dehydrogenase, and 10 mM glucose-6-phosphate; all from Sigma), and then human hepatic S9 (Anatomic Gift Foundation) is thawed and added in sufficient amounts to cause readily detectable amounts of metabolites to be formed in control reactions (amount necessary varies among individuals, but 10 uL is typical).
# The samples prepared above are readied for HPLC assessment using the protocol that follows. Each tube is vortex mixed and centrifuged for 10 min at setting 35, the resulting supernatant is transferred to a clean tube, and the liquid is evaporated using a Speed Vac apparatus. The residue in each tube is first dissolved in 40 uL 1:1 acetonitrile:water, 2.5 mL of acetonitrile is added, and the centrifuge-transfer-evaporate step just described is repeated.
# Linear gradients are used for elution and are formed by mixing mobile phase A composed of water with mobile phase B composed of 0.025% (v/v) formic acid in acetonitrile (instrument: Hewlett Packard). The elution time, in minutes, the percentage of mobile phase B present in the mixed mobile phase, and the flow rate (mL/min) are as follows: 0, 10, 0.10; 2, 10, 0.10; 3.5, 10, 0.20; 4, 10, 0.25; 5, 10, 0.25; 30, 55, 0.25; 32, 98, 0.25; 33, 98, 0.40; 39.8, 98, 0.40; 40, 98, 0.25; 45, 10, 0.25; 45.25, 10, 0.20; 50, 10, 0.20; 50.25, 10, 0.10. The chromatographic column has dimensions of 150 mm length×2.1 mm internal diameter, is packed with a proprietary material (Prism, Keystone Scientific, Inc.), is protected with a 2 mm internal diameter column containing the same material and with a PTFE filter, and is maintained at 35+/-0.2° C. The dry sample residue is mixed with 60 uL of 1:1 acetonitrile:water followed by 40 uL water just prior to each 50.25 min run cycle. The column eluate from each 10 uL injection is monitored for fluorescence with excitation at 228 nm, emission at 291 nm, and bandpass filtration at 280 nm.
# The process of preparing incubation mixtures begins by mixing 10 uL of ethanol (control reactions) or an ethanolic solution containing an inhibitor with 100 uL of 100 mg/mL bovine serum albumin (Sigma) dissolved in reaction buffer at room temperature. Reaction buffer is composed of 0.10 M sodium phosphate, 1.0 mM ethylenediaminetetraacetic acid, and 5.0 mM magnesium chloride, pH 7.4 (all reagents: Fisher Scientific). […] Final inhibitor concentrations were expressed in molarity by calculation from the weighed material or by use of Beer's law. Reaction tubes are placed on ice in preparation for the manipulations that follow. […]
# Human Cytochrome P450 [2] = assay: Protocol C': generation of saquinavir metabolites by human hepatic S9 in the presence of inhibitor; assay type: in vitro ADME
# Protocol: The process of preparing incubation mixtures begins by mixing 10 uL of ethanol (control reactions) or an ethanolic solution containing an inhibitor with 100 uL of 100 mg/mL bovine serum albumin (Sigma) dissolved in reaction buffer at room temperature. Reaction buffer is composed of 0.10 M sodium phosphate, 1.0 mM ethylenediaminetetraacetic acid, and 5.0 mM magnesium chloride, pH 7.4 (all reagents: Fisher Scientific). […] Final inhibitor concentrations were expressed in molarity by calculation from the weighed material or by use of Beer's law. Reaction tubes are placed on ice in preparation for the manipulations that follow. Sufficient reaction buffer is added so that the final volume of each tube will be 500 uL, 5 uL of a 100-fold concentrate for generating reduced nicotinamide adenine dinucleotide phosphate is added (such that completed reaction mixture contains 1.0 mM nicotinamide adenine dinucleotide phosphate, 1 U/mL glucose-6-phosphate dehydrogenase, and 10 mM glucose-6-phosphate; all from Sigma), and then human hepatic S9 (Anatomic Gift Foundation) is thawed and added in sufficient amounts to cause readily detectable amounts of metabolites to be formed in control reactions (amount necessary varies among individuals, but 10 uL is typical). […]
# The samples prepared above are readied for HPLC assessment using the protocol that follows. […]
# [3] = in vivo; cited from earlier work
# first-pass effect [4] = conditions: in vivo; cited from earlier work
# first-pass effect [5] = conditions: inhibitors commonly given to humans; cited from earlier work
# cytochrome P450 = conditions: given to humans in large doses; cited from earlier work
smiles,measurement,setting,value
CC(C)=CCC/C(C)=C/COc1c2ccoc2cc2oc(=O)ccc12 [bergamottin],first-pass effect effectiveness,Human Cytochrome P450 [1],ineffective
same,first-pass inhibition (saquinavir metabolite generation),Human Cytochrome P450 [2],essentially ineffective first-pass inhibitors
"COc1c2occc2cc2ccc(=O)oc12 [xanthotoxin, 8-methoxypsoralen]",phototoxicity,[3],phototoxic
CC(=O)N1CCN(c2ccc(OCC3COC(Cn4ccnc4)(c4ccc(Cl)cc4Cl)O3)cc2)CC1 (stereo not drawn) [ketoconazole],inhibition of the first-pass effect,first-pass effect [4],inhibitors of the first-pass effect
OC(Cn1cncn1)(Cn1cncn1)c1ccc(F)cc1F [fluconazole],inhibition of the first-pass effect,first-pass effect [4],inhibitors of the first-pass effect
CC(C)=CCOc1c2occc2cc2ccc(=O)oc12 [imperatorin],first-pass effect effectiveness,Human Cytochrome P450 [1]; determined herein,ineffective
same,first-pass inhibition (saquinavir metabolite generation),"Human Cytochrome P450 [2]; FIG. 1, Protocol C', saquinavir, human hepatic S9",essentially ineffective first-pass inhibitors
O=c1ccc2ccc3occc3c2o1 [angelicin],first-pass effect effectiveness,Human Cytochrome P450 [1]; determined herein,ineffective
CCC(C)n1ncn(-c2ccc(N3CCN(c4ccc(OCC5COC(Cn6cncn6)(c6ccc(Cl)cc6Cl)O5)cc4)CC3)cc2)c1=O (stereo not drawn) [itraconazole],inhibition of the first-pass effect,first-pass effect [4],inhibitors of the first-pass effect
Clc1ccc(COC(Cn2ccnc2)c2ccc(Cl)cc2Cl)c(Cl)c1 (stereo not drawn) [miconazole],inhibition of the first-pass effect,first-pass effect [4],inhibitors of the first-pass effect
Cc1nnc2n1-c1ccc(Cl)cc1C(c1ccccc1Cl)=NC2 [triazolam],bioavailability in presence of inhibitors,first-pass effect [5],bioavailability is increased by inhibitors commonly given to humans
CC[C@H]1OC(=O)[C@H](C)[C@@H](O[C@H]2C[C@@](C)(OC)[C@@H](O)[C@H](C)O2)[C@H](C)[C@@H](O[C@@H]2O[C@H](C)C[C@H](N(C)C)[C@H]2O)[C@](C)(O)C[C@@H](C)C(=O)[C@H](C)[C@@H](O)[C@]1(C)O [erythromycin],inhibition of the first-pass effect,first-pass effect [4],inhibitors of the first-pass effect
C/C(=C\COc1ccc2ccc(=O)oc2c1)CCC(O)C(C)(C)O (stereo not drawn) [marmin],first-pass effect effectiveness,Human Cytochrome P450 [1],ineffective
Cc1ncc2n1-c1ccc(Cl)cc1C(c1ccccc1F)=NC2 [midazolam],bioavailability in presence of inhibitors,first-pass effect [5],bioavailability is increased by inhibitors commonly given to humans
CO[C@H]1C[C@H](O[C@H]2[C@H](C)[C@@H](O[C@@H]3O[C@H](C)C[C@H](N(C)C)[C@H]3OC(C)=O)[C@@H](C)C[C@@]3(CO3)C(=O)[C@H](C)[C@@H](OC(C)=O)[C@@H](C)[C@@H](C)OC(=O)[C@@H]2C)O[C@@H](C)[C@@H]1OC(C)=O [troleandomycin],inhibition of the first-pass effect,first-pass effect [4],inhibitors of the first-pass effect
O=c1ccc2cc3ccoc3cc2o1 [psoralen],first-pass effect effectiveness,Human Cytochrome P450 [1]; determined herein,ineffective
same,phototoxicity,[3],phototoxic
same,inhibition of cytochrome P450,cytochrome P450,do inhibit cytochrome P450
"COc1c2ccoc2cc2oc(=O)ccc12 [bergapten, 5-methoxypsoralen]",phototoxicity,[3],phototoxic
COc1c2ccoc2c(OC)c2oc(=O)ccc12 [isopimpinellin],first-pass effect effectiveness,Human Cytochrome P450 [1]; determined herein,ineffective
"C/C(=C\COc1c2ccoc2cc2oc(=O)ccc12)CCC(O)C(C)(C)O (stereo not drawn) [6', 7'-dihydroxybergamottin]",first-pass effect effectiveness,Human Cytochrome P450 [1],ineffective
